Experimental data: the kinase profiling compilation of Christmann-Franck et al. (2016)

Tests used:
Experiment in all cases: KINOMEscan competition binding
Conditions in all cases: compound 10.0 µM
[1] = tested on: ABL1 (human), P00519 [F317L]
[2] = tested on: BMX (human), P51813 [V600E]
[3] = tested on: FGFR3 (human), P22607 [G697C]
[4] = tested on: KIT (human), P10721 [A829P]
[5] = tested on: KIT (human), P10721 [D816H]
[6] = tested on: LRRK2 (human), Q5S007 [G2019S]
[7] = tested on: MET (human), P08581 [M1250T]
[8] = tested on: PIK3CA (human), P42336 [E542K]
[9] = tested on: PIK3CA (human), P42336 [H1047L]
[10] = tested on: PIK3CA (human), P42336 [M1043I]
[11] = tested on: RET (human), P07949 [V804L]
[12] = tested on: EGFR (human), P00533 [A750P; 747-749 del]
[13] = tested on: EGFR (human), P00533 [G719C]
[14] = tested on: EGFR (human), P00533 [L858R]
[15] = tested on: FLT3 (human), P36888 [D835Y]

PIK3CA (human), P42336 [M1043I], sequence (P42336 whole entry M1043I, looked up): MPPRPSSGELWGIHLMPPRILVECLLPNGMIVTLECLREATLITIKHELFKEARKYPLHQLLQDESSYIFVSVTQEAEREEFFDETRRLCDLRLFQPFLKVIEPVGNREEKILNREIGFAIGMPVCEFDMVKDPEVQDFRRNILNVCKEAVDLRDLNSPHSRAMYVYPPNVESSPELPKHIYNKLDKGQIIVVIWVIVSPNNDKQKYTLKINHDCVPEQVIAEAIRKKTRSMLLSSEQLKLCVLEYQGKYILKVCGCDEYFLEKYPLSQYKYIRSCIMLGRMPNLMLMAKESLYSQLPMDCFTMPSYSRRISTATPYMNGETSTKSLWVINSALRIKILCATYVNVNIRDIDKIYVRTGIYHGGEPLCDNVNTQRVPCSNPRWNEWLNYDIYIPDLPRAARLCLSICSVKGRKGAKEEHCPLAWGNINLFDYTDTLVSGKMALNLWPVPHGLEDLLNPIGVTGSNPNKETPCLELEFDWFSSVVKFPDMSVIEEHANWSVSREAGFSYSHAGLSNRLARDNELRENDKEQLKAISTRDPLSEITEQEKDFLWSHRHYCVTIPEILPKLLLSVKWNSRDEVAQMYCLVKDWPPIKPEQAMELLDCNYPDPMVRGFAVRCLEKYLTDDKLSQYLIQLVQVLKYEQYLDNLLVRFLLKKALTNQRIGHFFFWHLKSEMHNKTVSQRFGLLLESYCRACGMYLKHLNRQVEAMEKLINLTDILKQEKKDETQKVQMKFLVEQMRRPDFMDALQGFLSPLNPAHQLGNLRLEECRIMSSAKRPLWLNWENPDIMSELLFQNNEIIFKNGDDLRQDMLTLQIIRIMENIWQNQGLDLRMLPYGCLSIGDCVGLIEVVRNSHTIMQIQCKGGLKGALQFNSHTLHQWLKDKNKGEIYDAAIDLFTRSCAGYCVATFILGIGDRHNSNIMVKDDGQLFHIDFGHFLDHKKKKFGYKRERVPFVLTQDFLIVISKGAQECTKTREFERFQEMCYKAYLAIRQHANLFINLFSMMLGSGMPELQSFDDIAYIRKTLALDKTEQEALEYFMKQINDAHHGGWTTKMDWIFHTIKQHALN
PIK3CA (human), P42336 [H1047L], sequence (P42336 whole entry H1047L, looked up): as the sequence (P42336 whole entry M1043I, looked up) above, with I1043M, H1047L counted along it
LRRK2 (human), Q5S007 [G2019S], sequence (Q5S007 whole entry G2019S, looked up): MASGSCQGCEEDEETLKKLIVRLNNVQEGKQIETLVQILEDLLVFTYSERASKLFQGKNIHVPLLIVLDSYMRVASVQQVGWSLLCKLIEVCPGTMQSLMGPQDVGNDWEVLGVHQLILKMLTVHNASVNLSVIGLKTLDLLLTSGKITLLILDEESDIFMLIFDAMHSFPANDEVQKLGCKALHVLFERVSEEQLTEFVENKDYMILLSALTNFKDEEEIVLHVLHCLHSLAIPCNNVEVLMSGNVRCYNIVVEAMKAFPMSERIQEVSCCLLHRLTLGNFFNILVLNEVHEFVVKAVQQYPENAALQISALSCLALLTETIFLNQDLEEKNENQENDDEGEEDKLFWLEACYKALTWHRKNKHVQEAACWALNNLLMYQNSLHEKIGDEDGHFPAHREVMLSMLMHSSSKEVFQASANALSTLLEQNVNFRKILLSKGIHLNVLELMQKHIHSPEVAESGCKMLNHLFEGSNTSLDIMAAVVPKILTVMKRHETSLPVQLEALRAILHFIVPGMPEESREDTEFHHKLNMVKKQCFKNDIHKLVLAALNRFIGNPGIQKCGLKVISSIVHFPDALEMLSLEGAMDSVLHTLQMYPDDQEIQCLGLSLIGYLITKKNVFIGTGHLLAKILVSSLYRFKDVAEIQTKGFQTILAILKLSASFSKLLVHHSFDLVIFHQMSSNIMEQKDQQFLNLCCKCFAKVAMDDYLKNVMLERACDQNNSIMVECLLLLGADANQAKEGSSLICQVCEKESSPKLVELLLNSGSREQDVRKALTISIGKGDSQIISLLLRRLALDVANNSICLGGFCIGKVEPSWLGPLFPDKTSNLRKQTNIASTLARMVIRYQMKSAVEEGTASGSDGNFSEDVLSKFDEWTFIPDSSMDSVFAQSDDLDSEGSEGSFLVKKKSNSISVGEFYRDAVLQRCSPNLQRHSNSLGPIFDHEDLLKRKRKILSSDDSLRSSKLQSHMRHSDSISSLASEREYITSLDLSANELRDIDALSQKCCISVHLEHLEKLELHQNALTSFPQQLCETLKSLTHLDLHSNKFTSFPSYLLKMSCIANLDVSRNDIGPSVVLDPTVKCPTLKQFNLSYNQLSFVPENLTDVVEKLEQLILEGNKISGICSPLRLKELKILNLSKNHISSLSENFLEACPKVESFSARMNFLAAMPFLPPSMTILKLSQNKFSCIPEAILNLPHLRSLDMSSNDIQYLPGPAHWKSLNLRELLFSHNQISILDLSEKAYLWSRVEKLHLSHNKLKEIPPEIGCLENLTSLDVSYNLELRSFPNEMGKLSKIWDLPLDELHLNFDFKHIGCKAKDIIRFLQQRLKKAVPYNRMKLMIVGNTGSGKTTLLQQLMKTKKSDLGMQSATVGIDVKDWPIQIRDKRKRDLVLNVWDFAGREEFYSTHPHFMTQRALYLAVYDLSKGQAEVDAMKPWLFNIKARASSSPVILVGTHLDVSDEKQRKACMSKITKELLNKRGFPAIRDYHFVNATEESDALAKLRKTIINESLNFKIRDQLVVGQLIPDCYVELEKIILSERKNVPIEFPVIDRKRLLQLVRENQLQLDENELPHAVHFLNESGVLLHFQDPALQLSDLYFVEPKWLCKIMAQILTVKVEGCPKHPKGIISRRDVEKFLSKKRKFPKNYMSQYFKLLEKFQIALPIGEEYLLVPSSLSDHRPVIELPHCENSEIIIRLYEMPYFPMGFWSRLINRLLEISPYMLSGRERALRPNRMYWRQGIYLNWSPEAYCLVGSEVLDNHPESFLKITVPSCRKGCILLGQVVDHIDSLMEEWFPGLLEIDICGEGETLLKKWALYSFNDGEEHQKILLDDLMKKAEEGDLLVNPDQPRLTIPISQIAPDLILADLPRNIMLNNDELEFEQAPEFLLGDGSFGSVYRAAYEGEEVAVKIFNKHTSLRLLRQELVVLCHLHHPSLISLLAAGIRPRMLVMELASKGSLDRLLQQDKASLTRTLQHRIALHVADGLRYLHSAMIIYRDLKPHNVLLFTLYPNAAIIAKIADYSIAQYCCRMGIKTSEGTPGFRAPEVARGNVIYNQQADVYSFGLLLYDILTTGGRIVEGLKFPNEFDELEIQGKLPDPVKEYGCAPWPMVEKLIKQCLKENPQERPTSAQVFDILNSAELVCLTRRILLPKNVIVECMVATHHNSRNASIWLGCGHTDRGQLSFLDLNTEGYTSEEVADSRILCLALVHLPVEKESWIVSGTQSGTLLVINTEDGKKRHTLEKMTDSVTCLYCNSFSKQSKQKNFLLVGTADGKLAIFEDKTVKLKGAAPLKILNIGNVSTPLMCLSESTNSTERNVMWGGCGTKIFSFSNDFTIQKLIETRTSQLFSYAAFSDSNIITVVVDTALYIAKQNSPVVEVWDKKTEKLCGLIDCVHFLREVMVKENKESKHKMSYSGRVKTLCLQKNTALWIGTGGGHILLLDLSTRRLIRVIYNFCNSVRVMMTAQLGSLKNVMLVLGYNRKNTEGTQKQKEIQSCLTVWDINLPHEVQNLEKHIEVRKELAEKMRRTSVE
BMX (human), P51813 [V600E], sequence (P51813 whole entry, looked up, stated change not applied): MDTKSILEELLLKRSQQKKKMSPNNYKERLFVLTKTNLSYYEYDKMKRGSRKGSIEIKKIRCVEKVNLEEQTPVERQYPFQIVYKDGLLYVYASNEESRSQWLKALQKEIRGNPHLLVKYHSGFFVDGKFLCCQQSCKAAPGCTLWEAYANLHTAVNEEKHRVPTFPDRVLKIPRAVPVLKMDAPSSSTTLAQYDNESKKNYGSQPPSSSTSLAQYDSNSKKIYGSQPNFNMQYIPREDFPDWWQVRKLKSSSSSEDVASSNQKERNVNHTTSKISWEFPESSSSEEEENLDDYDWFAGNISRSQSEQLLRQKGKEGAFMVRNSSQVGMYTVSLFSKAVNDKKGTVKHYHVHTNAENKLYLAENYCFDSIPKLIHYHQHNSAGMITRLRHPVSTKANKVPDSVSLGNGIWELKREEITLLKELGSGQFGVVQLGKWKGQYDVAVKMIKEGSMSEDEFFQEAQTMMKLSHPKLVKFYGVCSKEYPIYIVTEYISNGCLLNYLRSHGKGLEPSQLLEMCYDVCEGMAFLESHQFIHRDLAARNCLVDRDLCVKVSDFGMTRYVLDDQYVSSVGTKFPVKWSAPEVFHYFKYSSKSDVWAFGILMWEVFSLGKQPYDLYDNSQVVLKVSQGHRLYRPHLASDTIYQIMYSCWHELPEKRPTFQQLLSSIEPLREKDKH
FGFR3 (human), P22607 [G697C], sequence (P22607 whole entry G697C, looked up): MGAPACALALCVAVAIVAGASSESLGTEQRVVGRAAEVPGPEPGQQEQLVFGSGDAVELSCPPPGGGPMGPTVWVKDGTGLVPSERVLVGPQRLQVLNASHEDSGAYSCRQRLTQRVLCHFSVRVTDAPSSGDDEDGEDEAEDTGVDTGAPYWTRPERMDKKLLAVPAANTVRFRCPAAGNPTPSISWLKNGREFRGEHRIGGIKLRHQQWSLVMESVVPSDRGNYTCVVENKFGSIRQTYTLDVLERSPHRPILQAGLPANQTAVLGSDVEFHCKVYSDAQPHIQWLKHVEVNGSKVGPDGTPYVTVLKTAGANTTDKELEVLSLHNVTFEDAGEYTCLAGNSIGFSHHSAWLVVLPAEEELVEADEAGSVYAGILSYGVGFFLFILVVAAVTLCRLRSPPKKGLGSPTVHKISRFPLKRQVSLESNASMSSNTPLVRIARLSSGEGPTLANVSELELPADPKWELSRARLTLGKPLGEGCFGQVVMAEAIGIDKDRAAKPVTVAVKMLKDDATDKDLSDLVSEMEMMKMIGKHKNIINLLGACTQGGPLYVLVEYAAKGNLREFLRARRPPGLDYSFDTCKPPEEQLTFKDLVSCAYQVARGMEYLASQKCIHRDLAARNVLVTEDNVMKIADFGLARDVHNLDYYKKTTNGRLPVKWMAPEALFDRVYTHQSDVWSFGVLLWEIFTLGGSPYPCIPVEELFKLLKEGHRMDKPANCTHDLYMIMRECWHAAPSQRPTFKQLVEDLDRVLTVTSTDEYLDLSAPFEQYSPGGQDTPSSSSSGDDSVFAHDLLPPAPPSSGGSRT

SMILES | kinase still bound, per cent of control [1] [%] | kinase still bound, per cent of control [2] [%] | kinase still bound, per cent of control [3] [%] | kinase still bound, per cent of control [4] [%] | kinase still bound, per cent of control [5] [%] | kinase still bound, per cent of control [6] [%] | kinase still bound, per cent of control [7] [%] | kinase still bound, per cent of control [8] [%] | kinase still bound, per cent of control [9] [%] | kinase still bound, per cent of control [10] [%] | kinase still bound, per cent of control [11] [%] | kinase still bound, per cent of control [12] [%] | kinase still bound, per cent of control [13] [%] | kinase still bound, per cent of control [14] [%] | kinase still bound, per cent of control [15] [%]
CCOc1cc2ncc(C#N)c(Nc3ccc(OCc4ccccn4)c(Cl)c3)c2cc1NC(=O)/C=C/CN(C)C | 100 | 100 | 100 | 100 | 88 | 85 | 47 | 100 | 100 | 100 | 100 |  |  |  | 
CCN1CCN(Cc2ccc(Nc3ncc4c(n3)N(C)c3ccccc3C(=O)N4C)cc2C(F)(F)F)CC1 |  | 100 | 31 | 59 | 65 | 18 | 71 | 24 | 1.8 | 15 | 0.9 | 79 | 89 | 76 | 3.5
COc1cc2ncnc(-n3nc(-c4ccccn4)nc3N)c2cc1OC |  | 23 | 100 | 33 | 12 | 41 | 44 | 48 | 17 | 36 | 54 | 44 | 24 | 55 | 3.4
Cc1ccc(NC(=O)c2cccc(C(C)(C)C#N)c2)cc1Nc1ccc2ncn(C)c(=O)c2c1 |  | 0 | 100 | 100 | 57 | 69 | 64 | 100 | 100 | 89 | 31 | 11 | 49 | 48 | 100
C=CC(=O)Nc1cccc(Nc2nc(N[C@H]3CC[C@H](N(C)C)CC3)nc3c2ncn3C(C)C)c1 |  | 85 | 99 | 23 | 27 | 45 | 100 | 100 | 100 | 100 | 80 | 76 | 79 | 99 | 0.85
COc1ccc(N(C(=O)Oc2c(C)cccc2C)c2ccnc(Nc3ccc(N4CCN(C)CC4)cc3)n2)c(OC)c1 |  | 38 | 2.6 | 56 | 44 | 84 | 5.4 | 100 | 100 | 99 | 85 | 1 | 0.25 | 0 | 5.2
COc1cc(N2CCN(C)CC2)ccc1Nc1nc(N)c(C(=O)c2c(Cl)cccc2Cl)s1 |  | 100 | 100 | 81 | 86 | 97 | 100 | 100 | 100 | 100 | 100 | 100 | 91 | 100 | 100
O=C(Nc1cccc(Nc2ncc(Br)c(NCCc3cnc[nH]3)n2)c1)N1CCCC1 |  | 62 | 0.8 | 28 | 11 | 8.4 | 4.6 | 100 | 59 | 95 | 0.15 | 41 | 24 | 65 | 0.1
C=CC(=O)Nc1cc(NC(=O)c2ccc(C)c(NC(=O)c3ccno3)c2)cc(C(F)(F)F)c1 |  | 19 | 91 | 54 | 75 | 85 | 86 | 88 | 73 | 93 | 100 | 100 | 94 | 100 | 100
O=C(NC1CC1)c1cccc(-c2ccc3c(NC(=O)C4CC4)n[nH]c3c2)c1 |  | 65 | 100 | 76 | 75 | 87 | 73 | 100 | 98 | 92 | 96 | 82 | 73 | 93 | 15
C=CC(=O)Nc1cc(-n2c(=O)ccc3cnc4ccc(-c5cn[nH]c5)cc4c32)ccc1C |  | 91 | 74 | 36 | 14 | 6.4 | 80 | 20 | 4.6 | 15 | 79 | 26 | 100 | 41 | 1.2
CN(C)C/C=C/C(=O)Nc1ccc(C(=O)Nc2cccc(Nc3nccc(-c4cccnc4)n3)c2)cc1 |  | 63 | 84 | 64 | 51 | 76 | 100 | 100 | 100 | 100 | 84 | 100 | 83 | 99 | 18
O=c1cc(N2CCOCC2)oc2c(-c3cccc4c3sc3ccccc34)cccc12 |  | 95 | 94 | 96 | 100 | 100 | 67 | 27 | 4.4 | 17 | 100 | 91 | 100 | 89 | 79
CN(C)C/C=C/C(=O)Nc1cccc(Nc2ncc3c(n2)N(C)c2ccccc2C(=O)N3C)c1 |  | 59 | 12 | 40 | 33 | 6.1 | 43 | 39 | 16 | 39 | 0.15 | 71 | 14 | 73 | 1.4
